Source: article PMC8783508, “A novel D-amino acid peptide with therapeutic potential (ISAD1) inhibits aggregation of neurotoxic disease-relevant mutant Tau and prevents Tau toxicity in vitro” (Alzheimer's Research & Therapy, 2022)
Non-standard residues stand in square brackets, D forms with d. Residues, ends and D or L forms follow the SMILES beside them.

System: Tau^FLΔK, Tau^FL-A152T, Tau^FL-P301L
Test: Pelleting assay and western blot, full-length Tau mutants
Type: biochemical, human
Details: 10 µM Tau mutant, 100 µM peptide, 24 hours, K9JA western blot
Method: After the ThS assay (end time point, 24 h), 70 μl of each sample (pooled together from 2 wells) was centrifuged in a Beckmann coulter (Optima Max Ultra Centrifuge, TLA 100.3 rotor) at 61,000 rpm for 60 min at 4 °C. After centrifugation, the supernatant was separated from the pellet. Then, the pellet was dissolved in BES buffer in an equal volume as the supernatant. For the following western blot, 12-μl samples were mixed with 3-μl SDS-sample buffer (5x), heated for 5 min at 95 °C, and loaded onto a 8–16% SDS tris-glycine-gel (BioRad, Feldkirchen, Germany). The proteins were transferred to a polyvinylidene fluoride (PVDF) membrane. After the transfer, the membrane was blocked in 5% non-fat dry milk. After washing the membrane three times for 10 min with TBST, the primary pan-Tau K9JA antibody (1:5000; Agilent, Waldbronn, Germany) was incubated for 1 h at RT with gentle agitation, followed by again 3-times washing with TBST. […] The quantification of intensities was performed using ImageJ.
S-Figure 4-6: ISAD1 induces the formation of non-fibrillar large aggregates of Tau mutants. […] (C) The intensity of protein amount in supernatant and pellet was quantified by ImageJ for different Tau mutants such as Tau^FLΔK (Sup. Fig. 2C), Tau^FL-^A152T (Sup. Fig. 3C) or Tau^FL^-P^301L (Sup. Fig. 4C).

SMILES: CC(C)C[C@@H](NC(=O)[C@@H](CO)NC(=O)[C@@H](CC(C)C)NC(=O)[C@H](NC(=O)[C@@H](CC(=O)O)NC(=O)[C@@H](C)NC(=O)[C@@H](C)NC(=O)[C@H](N)CO)[C@H](C)O)C(=O)N[C@H](CCCCN)C(=O)N[C@H](Cc1ccccc1)C(=O)N[C@@H](C(=O)N[C@H](CO)C(=O)O)C(C)C [ISAD1rev] (H-[dS][dA][dA][dD][dT][dL][dS][dL][dK][dF][dV][dS]-OH; N-terminus and C-terminus assumed)
- Distribution of full-length Tau mutants between pellet and supernatant: more fractions in the supernatant
